Test [1] addresses T1, WRN (Homo sapiens, UniProt Q14191).
T1 construct: A His-tagged construct of WRN (AA S2-S1235) was produced and used for the ATPase assay; His; made in house; host or cells: Sf9 insect cells (baculovirus)
Briefly: WRN ATPase activity assay (ADP-Glo). The class given is biochemical. The settings on record: 1-hr pre-incubation with enzyme; 100 μM ATP, 25 nM forked dsDNA, 1 nM WRN; geometric mean of at least 2 replicates. Here is the method: Compounds of the Examples were tested for WRN ATPase activity. WRN ATPase activity catalyzes ATP hydrolysis to produce ADP and phosphate. DNA encoding the target protein, 6×HIS-TEV-WRN-517-945, was produced, cloned and transfected as detailed in Example D. The amount of ADP produced was measured using ADP-Glo™ Kinase Assay kit from Promega Corporation in a Greiner white regular volume 384 wells assay plate (Greiner #781075). Data was normalized to a standard curve generated using various ADP concentrations and the corresponding luminescent signal intensities at each concentration. The assay conditions were optimized for enzyme concentration (WRN), substrate concentrations (ATP & dsDNA), and the linearity of the ATPase reaction, in the following assay buffer: 50 mM Tris-HCl, pH-7.5, 2 mM MgCl2, 50 mM NaCl, 1 mM EGTA, 0.01% P-20, 0.05% BSA, and 2 mM DTT prepared with nuclease free water.
A serial dilution (1:3 scheme) of the compounds were prepared in neat DMSO, with 100 nL of the compounds dispensed in the 384 wells assay plate. An 1-hr pre-incubation of the compounds with enzyme was included. A His-tagged construct of WRN (AA S2-S1235) was produced and used for the ATPase assay. Maximum inhibition control wells were set up with the addition of only assay buffer, and no inhibition control wells were set up with neat DMSO without test compounds. The reaction was initiated by addition of 5 μL substrate mix (200 μM ultrapure ATP, and 50 nM dsDNA prepared in assay buffer) and incubated at 25° C. for 35 min. A forked dsDNA oligomer substrate was prepared by annealing equal amounts of oligo GPat-1 ([BHQ2][…]) and oligo GPat-2 ([…][TAM]) and was used as dsDNA substrate for WRN ATPase assay. A typical ATPase reaction consists of 25 nM forked dsDNA, 100 μM ATP, and 1 nM WRN prepared in assay buffer. The WRN ATPase reaction was stopped by the addition of 5 μL of ADP-Glo Reagent from ADP-Glo™ Kinase Assay kit and incubated for 40 min to deplete the unreacted ATP. Afterwards, 5 μL of Kinase Detection Reagent from the ADP-Glo™ Kinase Assay kit was added and incubated for 1 hr for the development of luminescence signal.
Luminesce signals were measured on BMG PHERAstar FSX using luminescence protocol. Data analysis was carried out using Genedata software following % of control normalization. Fitting parameters include dose response IC50, Hill slope (n), maximum inhibition (S∞), and minimum inhibition (S0). The reported IC50 values for compounds in this invention are the geometric means of at least 2 independent replicates.
A general note: ADP-Glo first removes unused ATP, then detects ADP through luciferase.

For test [2], the target named is T1, WRN. As to the kind of experiment: WRN Helicase activity assay (fluorescence DNA unwinding). The class given is biochemical. The conditions noted are these: 1-hr pre-incubation with enzyme; 100 μM ATP, 25 nM forked dsDNA, 1 nM WRN; geometric mean of at least 2 replicates. The protocol: Compounds of the examples were tested for WRN helicase activity. DNA encoding the target protein, 6×HIS-TEV-WRN-517-945, was produced, cloned and transfected as detailed in Example D. To determine the inhibitory properties of the compounds, a 384 wells plate-based Helicase assay was set up to measure the extent of DNA unwinding (Helicase) activity of WRN. The WRN Helicase assay was designed to measure increase in fluorescence signal using a fluorescence based, donor-quencher paired forked dsDNA oligomer substrate (custom synthesis from Sigma-Aldrich) prepared by annealing equal amounts of oligo GPat-1 ([BHQ2][…]) and oligo GPat-2 ([…][TAM]). Continuous measurement of fluorescent signal was used to optimize the buffer conditions, concentration of enzyme (WRN), concentration of substrates (ATP & dsDNA), and the linearity of the Helicase reaction. All solutions were prepared in the following assay buffer: 50 mM Tris-HCl, pH-7.5, 2 mM MgCl2, 50 mM NaCl, 1 mM EGTA, 0.01% P-20, 0.05% BSA, and 2 mM DTT prepared with nuclease free water.
A serial dilution (1:3 scheme) of the compounds was prepared in neat DMSO and 100 nL of the compounds was dispensed in the Greiner black low volume (Greiner #784076) 384 wells assay plate. An 1-hr pre-incubation of the compounds with enzyme was included. A His-tagged construct of WRN (AA S2-S1235) was produced and used for the ATPase assay. Maximum inhibition control wells were set up with the addition of only assay buffer, and no inhibition control wells were set up with neat DMSO without test compounds. The reaction was initiated by addition of 5 μL substrate mix (200 μM ultrapure ATP, and 50 nM dsDNA prepared in assay buffer) and incubated at 25° C. for 35 min. A typical Helicase reaction consists of 25 nM forked dsDNA, 100 μM ATP, and 1 nM WRN prepared in assay buffer. The WRN Helicase reaction was quenched by the addition of 5 μL ‘STOP’ solution containing 100 mM EDTA (final EDTA concentration 33.33 mM) prepared in assay buffer. The plates were read on BMG PHERAstar FSX using 540/590 module to measure an increase of fluorescence. Data analysis was carried out using the Genedata software following % of control normalization. Fitting parameters include dose response IC50, Hill slope (n), maximum inhibition (S∞), and minimum inhibition (S0). The reported IC50 values for compounds in this invention are the geometric means of at least 2 independent replicates.

Structures are written as SMILES. Where only a bound is given, the exact number is not on record here.

T1 sequence (Q14191 2-1235): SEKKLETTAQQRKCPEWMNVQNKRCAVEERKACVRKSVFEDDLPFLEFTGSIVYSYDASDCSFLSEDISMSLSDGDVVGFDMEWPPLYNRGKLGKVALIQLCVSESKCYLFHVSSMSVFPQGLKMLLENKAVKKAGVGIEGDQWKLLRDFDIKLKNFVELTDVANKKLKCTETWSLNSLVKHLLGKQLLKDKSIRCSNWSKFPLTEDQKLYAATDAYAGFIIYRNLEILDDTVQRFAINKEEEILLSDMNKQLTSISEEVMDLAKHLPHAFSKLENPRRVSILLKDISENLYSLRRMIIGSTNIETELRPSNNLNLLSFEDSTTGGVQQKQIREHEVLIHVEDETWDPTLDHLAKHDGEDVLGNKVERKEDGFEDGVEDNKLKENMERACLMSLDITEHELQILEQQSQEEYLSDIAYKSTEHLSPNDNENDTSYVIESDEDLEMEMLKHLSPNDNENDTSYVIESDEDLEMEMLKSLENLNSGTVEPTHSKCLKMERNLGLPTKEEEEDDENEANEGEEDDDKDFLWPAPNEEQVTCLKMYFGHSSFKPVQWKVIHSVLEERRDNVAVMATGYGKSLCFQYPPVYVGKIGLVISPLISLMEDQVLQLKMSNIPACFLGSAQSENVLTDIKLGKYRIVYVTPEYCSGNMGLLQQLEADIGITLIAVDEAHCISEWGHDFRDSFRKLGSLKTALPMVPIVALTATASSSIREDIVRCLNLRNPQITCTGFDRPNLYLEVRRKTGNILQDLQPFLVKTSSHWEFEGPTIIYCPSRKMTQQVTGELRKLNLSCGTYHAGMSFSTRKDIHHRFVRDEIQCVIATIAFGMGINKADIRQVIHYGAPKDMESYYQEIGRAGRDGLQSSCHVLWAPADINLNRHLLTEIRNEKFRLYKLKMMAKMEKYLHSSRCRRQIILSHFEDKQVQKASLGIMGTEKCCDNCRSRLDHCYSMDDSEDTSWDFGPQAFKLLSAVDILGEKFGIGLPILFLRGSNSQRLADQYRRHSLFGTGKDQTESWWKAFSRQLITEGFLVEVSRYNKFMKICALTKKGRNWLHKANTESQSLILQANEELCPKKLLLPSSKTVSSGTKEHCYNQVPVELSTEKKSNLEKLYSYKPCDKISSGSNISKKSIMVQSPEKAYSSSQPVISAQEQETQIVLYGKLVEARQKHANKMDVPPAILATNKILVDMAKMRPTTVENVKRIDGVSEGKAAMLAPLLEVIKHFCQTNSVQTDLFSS

Regarding `C=CC(=O)Nc1c(Cl)cccc1-c1c(CC)nc2n(CC(=O)Nc3ccc(F)cc3)c(C)c(C)n2c1=O` [Example 42, N-(2-chloro-6-(7-ethyl-1-(2-((4-fluorophenyl)amino)-2-oxoethyl)-2,3-dimethyl-5-oxo-1,5-dihydroimidazo[1,2-a]pyrimidin-6-yl)phenyl)acrylamide], the IC50 at WRN [1] and against WRN [2] was below 100 nM in each case.

Consider `C=CC(=O)Nc1ccccc1-c1c(C)nc2n(CC(=O)Nc3ccc(F)cc3)c(C)c(C)n2c1=O` [Example 19, N-(2-(1-(2-((4-Fluorophenyl)amino)-2-oxoethyl)-2,3,7-trimethyl-5-oxo-1,5-dihydroimidazo[1,2-a]pyrimidin-6-yl)phenyl)acrylamide], for which the IC50 at WRN [1] and against WRN [2] was below 100 nM in each case.

Take `C=CC(=O)Nc1ncccc1-c1c(CC)nc2n(CC(=O)Nc3ccc(C(F)(F)F)cc3)c(C)cn2c1=O` [Example 4, N-(3-(7-Ethyl-2-methyl-5-oxo-1-(2-oxo-2-((4-(trifluoromethyl)phenyl)amino)ethyl)-1,5-dihydroimidazo[1,2-a]pyrimidin-6-yl)pyridin-2-yl)acrylamide]: the IC50 on WRN [1] and against WRN [2] was below 100 nM each time.

Regarding `C=CC(=O)Nc1ccccc1-c1c(CC)nc2n(CC(=O)Nc3ccc(C(F)(F)F)cc3)c(C)cn2c1=O` [Example 1, N-(2-(7-Ethyl-2-methyl-5-oxo-1-(2-oxo-2-((4-(trifluoromethyl)phenyl)amino)ethyl)-1,5-dihydroimidazo[1,2-a]pyrimidin-6-yl)phenyl)acrylamide], the IC50 against WRN [1] and against WRN [2] was below 100 nM throughout.

On to `C=CC(=O)Nc1cc(S(C)(=O)=O)ccc1-c1c(CC)nc2n(CC(=O)Nc3ccc(C(F)(F)F)cc3)c(C)cn2c1=O` [Example 3, N-(2-(7-Ethyl-2-methyl-5-oxo-1-(2-oxo-2-((4-(trifluoromethyl)phenyl)amino)ethyl)-1,5-dihydroimidazo[1,2-a]pyrimidin-6-yl)-5-(methylsulfonyl)phenyl)acrylamide], for which the IC50 at WRN [1] and against WRN [2] was below 100 nM each time.

Consider `C=CC(=O)Nc1c(Cl)cccc1-c1c(CC)nc2n(CC(=O)Nc3ccc(Cl)cc3Cl)c(C)cn2c1=O` [Example 44, N-(2-chloro-6-(1-(2-((2,4-dichlorophenyl)amino)-2-oxoethyl)-7-ethyl-2-methyl-5-oxo-1,5-dihydroimidazo[1,2-a]pyrimidin-6-yl)phenyl)acrylamide], for which the IC50 at WRN [1] and against WRN [2] was below 100 nM in each case.

Consider `C=CC(=O)Nc1cc(C(=O)NCC(F)F)ccc1-c1c(CC)nc2n(CC(=O)Nc3ccc(C(F)(F)F)cc3)c(C)c(C)n2c1=O` [Example 30, 3-Acrylamido-N-(2,2-difluoroethyl)-4-(7-ethyl-2,3-dimethyl-5-oxo-1-(2-oxo-2-((4-(trifluoromethyl)phenyl)amino)ethyl)-1,5-dihydroimidazo[1,2-a]pyrimidin-6-yl)benzamide], for which the IC50 at WRN [1] and against WRN [2] was below 100 nM throughout.

Take `C=CC(=O)Nc1cc(C(=O)NC2CCOCC2)ccc1-c1c(CC)nc2n(CC(=O)Nc3ccc(C(F)(F)F)cc3)c(C)c(C)n2c1=O` [Example 32, 3-Acrylamido-4-(7-ethyl-2,3-dimethyl-5-oxo-1-(2-oxo-2-((4-(trifluoromethyl)phenyl)amino)ethyl)-1,5-dihydroimidazo[1,2-a]pyrimidin-6-yl)-N-(tetrahydro-2H-pyran-4-yl)benzamide]: the IC50 at WRN [1] and on WRN [2] was below 100 nM throughout.

With `C=CS(=O)(=O)Nc1ccccc1-c1c(C)n(CC(=O)Nc2ccc(F)cc2)c2nc(CC)c(-c3ccccc3)c(=O)n12` [Example 38, 2-(7-Ethyl-2-methyl-5-oxo-6-phenyl-3-(2-(vinylsulfonamido)phenyl)imidazo[1,2-a]pyrimidin-1(5H)-yl)-N-(4-fluorophenyl)acetamide], the IC50 on WRN [1] and against WRN [2] was below 100 nM in each case.

`C=CC(=O)Nc1cc(C(=O)NC2CC2)ccc1-c1c(CC)nc2n(CC(=O)Nc3ccc(F)cc3Cl)c(C)cn2c1=O` [Example 9, 3-Acrylamido-4-(1-(2-((2-chloro-4-fluorophenyl)amino)-2-oxoethyl)-7-ethyl-2-methyl-5-oxo-1,5-dihydroimidazo[1,2-a]pyrimidin-6-yl)-N-cyclopropylbenzamide]: the IC50 against WRN [1] and against WRN [2] was below 100 nM throughout.

In the case of `C=CC(=O)Nc1ccccc1-c1c(CC)nc2n(CC(=O)Nc3ccc(F)cc3)c(C)c(C)n2c1=O` [Example 18, N-(2-(7-Ethyl-1-(2-((4-fluorophenyl)amino)-2-oxoethyl)-2,3-dimethyl-5-oxo-1,5-dihydroimidazo[1,2-a]pyrimidin-6-yl)phenyl)acrylamide], the 50% inhibitory concentration (IC50) on WRN [1] and at WRN [2] was below 100 nM each time.

For the compound `C=CC(=O)Nc1ccccc1-c1cn(CC(=O)Nc2ccc(C(F)(F)F)cc2)c2nc(CC)c(N3CCN(C(=O)c4ncccc4O)CC3)c(=O)n12` [Example 36, N-(2-(7-Ethyl-6-(4-(3-hydroxypicolinoyl)piperazin-1-yl)-5-oxo-1-(2-oxo-2-((4-(trifluoromethyl)phenyl)amino)ethyl)-1,5-dihydroimidazo[1,2-a]pyrimidin-3-yl)phenyl)acrylamide], the IC50 against WRN [1] and against WRN [2] was below 100 nM throughout.

For `C=CC(=O)Nc1cc(C(=O)NC2CC2)ccc1-c1c(CC)nc2n(CC(=O)Nc3ccc(C(F)(F)F)cc3)c(C)c(C)n2c1=O` [Example 23, 3-Acrylamido-N-cyclopropyl-4-(7-ethyl-2,3-dimethyl-5-oxo-1-(2-oxo-2-((4-(trifluoromethyl)phenyl)amino)ethyl)-1,5-dihydroimidazo[1,2-a]pyrimidin-6-yl)benzamide], the IC50 against WRN [1] and on WRN [2] was below 100 nM in each case.

As to `C=CC(=O)Nc1cc(C(=O)N[C@H]2CCCOC2)ccc1-c1c(CC)nc2n(CC(=O)Nc3ccc(C(F)(F)F)cc3)c(C)c(C)n2c1=O` [Example 33, (S)-3-Acrylamido-4-(7-ethyl-2,3-dimethyl-5-oxo-1-(2-oxo-2-((4-(trifluoromethyl)phenyl)amino)ethyl)-1,5-dihydroimidazo[1,2-a]pyrimidin-6-yl)-N-(tetrahydro-2H-pyran-3-yl)benzamide], the IC50 against WRN [1] and on WRN [2] was below 100 nM throughout.

`C=CC(=O)Nc1ccccc1-c1c(CC)nc2n(CC(=O)Nc3ccc(C(F)(F)F)cc3)c(C)c(C)n2c1=O` [Example 21, N-(2-(7-Ethyl-2,3-dimethyl-5-oxo-1-(2-oxo-2-((4-(trifluoromethyl)phenyl)amino)ethyl)-1,5-dihydroimidazo[1,2-a]pyrimidin-6-yl)phenyl)acrylamide]: the IC50 against WRN [1] and at WRN [2] was below 100 nM in each case.

For orientation: IC50 means the concentration at which inhibition is half-maximal.

Source of the values: patent US20250270217A1, “IMIDAZ0[1,2-A]PYRIMIDINE-5(1 H)-ONES HAVING A COVALENT WARHEAD AT THE 3-POSITION AS WRN INHIBITORS” (Incyte Corporation, priority 2023, published 2025).
